Laboratory results reported in US9745583B2, “Liposome for topical administration and application thereof” (DELTA-FLY PHARMA, INC., priority 2013, dated 2017).

Assays:
[1] = tested on: human malignant pleural mesothelioma cells (MSTO-211H); experiment: MTT assay, cell growth after shRNA transfection with or without PMX; assay type: cell-based; conditions: shRNA 5 or 10 nM with Lf RNAi MAX; in the presence of PMX 0.01 μg/ml; 0-96 hours
Description: This experiment was carried out on a 96-well plate scale. Transfection was carried out using Lipofectamine® RNAi MAX (hereafter referred to as “Lf RNAi MAX”), which is a cationic liposome, in accordance with the manufacturer's instructions.
shRNA (300 pmol of TS-shRNA or NS-shRNA) and 15 μl of Lf RNAi MAX were separately diluted with OptiMEM to prepare solutions (500 n1 each), the resulting solutions were mixed with each other, and the mixture was allowed to stand at room temperature for 10 to 20 minutes to form a complex (i.e., a lipoplex). A suspension of human malignant pleural mesothelioma cells (MSTO-211H) (2,000 cells/100 n1) was added to wells, 50 μl of lipoplex was added thereto 24 hours thereafter, and the final total volume was adjusted to 150 μl (the final shRNA concentration in the wells was adjusted to 5 nM or 10 nM). The medium was removed 24 hours after the initiation of transfection, and 200 μl of a fresh medium containing or not containing an existing cancer chemotherapeutic agent (“Alimta,” pemetrexed sodium hydrate, PMX, Eli Lilly) at 0.01 μg/ml was added thereto. The medium was removed 0, 24, 48, 72, and 96 hours after the addition of the fresh medium. […]
After the completion of incubation, acidic isopropanol (150 μl) was added to each well. […] Absorbance was determined at a wavelength of 570 nm using a plate reader. […]

MSTO-211H-Luc cells [2] = experiment: Tumor growth inhibition by intrathoracic TS-shRNA lipoplex in orthotopic mouse models of malignant pleural mesothelioma (Example 8); assay type: in vivo; conditions: compared with control; IVIS 21 days after implantation; lipoplex 20 μg shRNA intrathoracic x6; PMX 25 mg/kg i.p. x10
Description: Orthotopic implantation mouse models of malignant pleural mesothelioma using the MSTO-211H-Luc cells were prepared by the method described in Example 3, and mice in which implanted cells had been sufficiently fixed 7 days after implantation were subjected to in vivo experiment.
The TS-shRNA lipoplex or NS-shRNA lipoplex was directly administered into the thoracic cavity of a mouse carrying MSTO-211H-Luc cells every other day from 7 days to 17 days after the tumor implantation, and administration was carried out 6 times in total. A dose was 20 μg of shRNA/100 μl. […]
As described in Example 5, carcinostatic activity (i.e., cell growth inhibitory activity) was evaluated by implanting MSTO-211H-Luc cells, administering 100 μl of a D-luciferin potassium salt solution (7.5 mg/ml) intraperitoneally under anesthesia with isoflurane 21 days after implantation, and evaluating the bioluminescence levels depending on activity of the MSTO-211H-Luc cells that had grown in the thoracic cavity using IVIS (Xenogen, Alameda, Calif., U.S.A.).

TS gene = TS gene expression in collected tumor cells, quantitative RT-PCR (Example 9); assay type: in vivo, human; conditions: tumor cells collected 21 days after implantation; compared with control; GAPDH internal standard
Description: Mice of the groups subjected to the treatment in the same manner as in Example 8 were subjected to evaluation via IVIS 21 days after the implantation of the MSTO-211H-Luc cells, mice were sacrificed, tumor cells were collected from the thoracic cavity, and the inhibition of TS gene expression in the collected tumor cells was evaluated via quantitative RT-PCR.
RNA was extracted from tumor cells using the RNaqueous-micro kit (Ambion, Austin, Tex., U.S.A.) in accordance with the method recommended by the manufacturer. Reverse transcription of RNA into cDNA was carried out with the addition of Oligo (dT)20, dNTP, RNase inhibitor, and ReverTra Ace (Toyobo, Osaka, Japan) to RNA. Real-time PCR was carried out using the StepOnePlus real-time PCR system (Applied Biosystems, CA, U.S.A.), the reversely-transcribed cDNA as the template, and FastStart TaqMan Probe Master (ROX) and Universal ProbeLibrary (Roche Diagnostics GmbH, Manheim, Germany) as reagents, in accordance with the method recommended by the manufacturer. GAPDH was used as the internal standard.

MSTO-211H-Luc cells [3] = experiment: Tumor growth inhibition by intrathoracic TS-lipoplex and TS-preplex in orthotopic models (Example 11); assay type: in vivo, mouse; conditions: IVIS 18 days after implantation; 20 μg shRNA intrathoracic x5; PMX 25 mg/kg i.p. x10
Description: Orthotopic implantation models of malignant pleural mesothelioma using the MSTO-211H-Luc cells were prepared by the method described in Example 4, and the mice 4 days after implantation were subjected to the in vivo experiment.
The TS-lipoplex or TS-preplex was administered directly into the thoracic cavity 4, 7, 10, 13, and 16 days after the tumor implantation, so that 20 μg (50 μl) of shRNA would be administered.
When an existing chemotherapeutic agent (Alimta; pemetrexed sodium hydrate (PMX), Eli Lilly) was used in combination, a dose of 25 mg/kg was intraperitoneally administered every day from 4 days to 8 days after the tumor implantation, the same amount of the agent was intraperitoneally administered after an interval of 2 days every day from 11 days to 15 days after the tumor implantation, and administration was carried out 10 times in total.
Two days after the final administration of the TS-lipoplex or TS-preplex (i.e., 18 days after the tumor implantation), 100 μl of a D-luciferin potassium salt solution (7.5 mg/ml) was administered intraperitoneally under anesthesia with isoflurane, and the bioluminescence levels depending on luciferase activity in the MSTO-211H-Luc cells that had grown in the thoracic cavity were evaluated using IVIS (Xenogen, Alameda, Calif., U.S.A.).

Compound	growth of MSTO-211H cells (cell growth rate, MTT) [1]	tumor growth inhibitory effects (MSTO-211H-Luc cells [2])	TS gene inhibitory effects (TS mRNA) (TS gene)	tumor growth inhibitory effects (MSTO-211H-Luc cells [3])
TS-shRNA: TS-targeting shRNA, SEQ ID NO: 8 (GUAACACCAUCGAUCAUGAUAGUGCUCCUGGUUGUCAUGAUCGAUGGUGUUACUU; siRNA; shRNA hairpin, further chemistry not given here)	inhibited the growth of MSTO-211H cells to a significant extent			
Nc1nc2[nH]cc(CCc3ccc(C(=O)N[C@@H](CCC(=O)O)C(=O)O)cc3)c2c(=O)[nH]1 [PMX, pemetrexed sodium hydrate]		about 50%	about 25%	insignificant
